Results published in patent US5807889A, “Aminomethylindans, -benzofuranes and -benzothiophenes” (H. Lundbeck A/S, priority 1992, dated 1998).

Assays:
5-HT1A receptors [1] = target: T1, 5-HT1A receptors (Rattus norvegicus, UniProt P19327); test: 8-OH DPAT cue agonism in rats (drug discrimination); assay type: in vivo, male Wistar rats; set-up: agonist effects of a test compound on 5-HT1A receptors in vivo; from tissue; host or cells: living male Wistar rats (endogenous receptor, in vivo); settings: sc, read-out: 8-OH DPAT Cue Agonism ED50, rats, s.c., usually 30 or 45 min before test
T1 sequence (P19327 1-422): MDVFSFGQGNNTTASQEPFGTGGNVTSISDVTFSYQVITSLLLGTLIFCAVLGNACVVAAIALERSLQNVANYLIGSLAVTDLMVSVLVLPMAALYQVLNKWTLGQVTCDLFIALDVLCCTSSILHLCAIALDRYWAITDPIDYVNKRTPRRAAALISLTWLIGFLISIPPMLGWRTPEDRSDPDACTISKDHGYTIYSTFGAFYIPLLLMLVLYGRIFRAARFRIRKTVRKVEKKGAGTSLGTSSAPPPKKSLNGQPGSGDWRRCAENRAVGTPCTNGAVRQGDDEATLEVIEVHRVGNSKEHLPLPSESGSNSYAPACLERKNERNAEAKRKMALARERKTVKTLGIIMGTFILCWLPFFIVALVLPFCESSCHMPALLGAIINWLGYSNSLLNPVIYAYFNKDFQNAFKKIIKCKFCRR
Protocol: 8-OH DPAT Cue Agonisme in Rats
This test model is used to determine the agonist effects of a test compound on 5-HT1A receptors in vivo. A related method is described by Tricklebank, M. D., et al, Eur. J. Pharmacol., 1987, 133, 47-56; Arnt, J. Pharmacology & Toxicology, 1989, 64, 165.
Male Wistar rats are trained to discriminate between 8-OH-DPAT (0.4 mg/kg, i.p., 15 min pretreatment) and physiological saline in operant chambers equipped with two response levers. Between the levers a dipper is placed, where water rewards (0.1 ml) are presented. The rats are water deprived for at least 24 h and work in a fixed ratio (FR) schedule (final FR=32).
Following 8-OH-DPAT administration responding is reinforced only on a designated (drug) lever, whereas responding on the opposite lever has no consequences. Following saline administration responding is reinforced on the lever opposite to the drug lever. Drug and saline trials alternate randomly between days. The level of s discrimination occuracy is expressed as the per cent drug responses and is calculated as the number of correct responses ×100 divided by the sum of the correct and incorrect responses before the first reward. The time to the first reward is also recorded as a measure of reaction time. When stable occuracy (mean correst responding=90%; individual rats at least 75% correct responding) is obtained test sessions are included between training days. Test compound is injected s.c. usually 30 min or 45 min, respectively, before beginning of the test. The test trial is terminated when a total of 32 responses are made on either lever or when 20 min have elapsed. No reward is given and the rats have free access to water for 20-30 min after the test. The effects are expressed as per cent drug responding. Only results from rats making at least 10 responses on one lever are included in data analysis. Furthermore, only test sessions in which at least half of the rats respond are included.
The per cent inhibition of drug response obtained for each dose of test compound is used to calculate ED50 values by log-probit analysis.

5-HT1A receptors [2] = target: T1, 5-HT1A receptors; test: Inhibition of 3H-8-OH-DPAT binding to serotonin 5-HT1A receptors in rat brain in vitro; set-up: 5-HT1A receptors in membranes from rat brain minus cerebellum; from tissue; host or cells: brain minus cerebellum of male Wistar (Mol:Wist) rats, crude membranes; species or system rat (male Wistar); settings: 3H 8-OH DPAT binding IC50, 1 nM 3H-8-OH-DPAT, rat brain minus cerebellum membranes, 37° C., 15 min
Protocol: Male Wistar (Mol:Wist) rats (125-250 g) are sacrificed and the brain is dissected and weighed. The brain tissue minus cerebellum is homogenized (Ultra Turrax, 20 sec) in 10 ml of ice cold 50 nM Tris buffer pH 8.0 (at 25° C.) containing 120 mM NaCl, 4 mM CaCl2 and 4 mM MgCl2. The homogenate is centrifuged at 20,000 g for 10 min at 4° C. The pellet is homogenized in 10 ml of buffer and incubated at 37° C. for 10 min. The homogenate is centrifuged as above and the pellet is homogenized in 100 vol (w/v) ice cold buffer containing 10 μM of pargyline.
Incubation tubes kept on ice in triplicate receive 100 μl of drug solution in water (or water for total binding) and 1000 μl of tissue suspension (final tissue content corresponds to 10 mg original tissue). […] After incubation for 15 min the samples are filtered under vacuum (0-50 mBar) through Whatman GF/F filters (25 mm). The tubes are rinsed with 5 ml ice cold 0.9% NaCl which is then poured on the filters. Thereafter, the filters are washed with 2×5 ml 0.9% NaCl. The filters are placed in counting vials and 4 ml of appropriate scintillation fluid (e.g. Picofluor™ 15) are added. After shaking for 1 h and storage 2 h in the dark the content of radioactivity is determined by liquid scintillation counting. Specific binding is obtained by subtracting the nonspecific binding in the presence of 10 μM of 5-HT.
For determination of the inhibition of binding five concentrations of drugs covering 3 decades are used.
The IC50 -value is determined as the concentration, at which the binding is 50% of the total binding in control samples minus the nonspecific binding in the presence of 10 μM of 5-HT.

[3] = clinical studies; Glitz, Pohl, Drugs 1991; cited from earlier work

| ED50 (5-HT1A receptors [1]) | IC50 (5-HT1A receptors [2]) | SMILES | usefulness in the treatment of anxiety disorders (in words) [3] |
| --- | --- | --- | --- |
| 0.44 µmol/kg | 15 nM | CCCN(CCC)CC1CCc2cc(Cl)c(NC(C)=O)cc21 (single isomer, unassigned; (-)) [Compound 11b, (-)-6-Acetylamino-5-chloro-1-(N,N-dipropylaminomethyl)indan] | – |
| 0.01 µmol/kg | 0.89 nM | CCCN(CCC)CC1CCc2ccc(NC(C)=O)cc21 (stereo not drawn) [Compound 2a, 6-Acetylamino-1-(N,N-dipropylaminomethyl)indan] | – |
| 0.21 µmol/kg | 25 nM | CC(=O)Nc1ccc2c(c1)C(CN(C)C)CC2 (stereo not drawn) [Compound 2b, 6-Acetylamino-1-(N,N-dimethylaminomethyl)indan] | – |
| 2.2 µmol/kg | 5.1 nM | CCCN(CCC)CC1CCc2ccc(NC(=O)c3ccc(F)cc3)cc21 (stereo not drawn) [Compound 2c, 1-(N,N-dipropylaminomethyl)-6-(4-fluorobenzoylamino)indan] | – |
| 0.93 µmol/kg | 16 nM | CCCN(CCC)CC1CCc2ccc(NS(C)(=O)=O)cc21 (stereo not drawn) [Compound 2g, 1-(N,N-dipropylaminomethyl)-6-(methylsulphonylamino)indan] | – |
| 0.42 µmol/kg | 10 nM | CCCN(CCC)CC1CCc2ccc(NC(=O)N(C)C)cc21 (stereo not drawn) [Compound 4c, 6-(3,3-dimethyl-1-ureido)-1-(N,N-dipropylaminomethyl)indan] | – |
| 0.046 µmol/kg | 3.4 nM | CCCN(CCC)CC1CSc2ccc(NC=O)cc21 (stereo not drawn) [Compound 5a, 3-(N,N-dipropylaminomethyl)-5-formylamino-2,3-dihydrobenzothiophene] | – |
| 0.26 µmol/kg | 21 nM | CCCN(CCC)CC1CCc2cc(Cl)c(NC(C)=O)cc21 (stereo not drawn) [Compound 11a, 6-Acetylamino-5-chloro-1-(N,N-dipropylaminomethyl)indan] | – |
| 0.15 µmol/kg | 1.4 nM | CC(=O)Nc1ccc2c(c1)C(CN(C)CCCCC1CCCCC1)CC2 (stereo not drawn) [Compound 13a, 6-Acetylamino-1-[N-(4-cyclohexylbutan-1-yl)-N-methylaminomethyl]indan] | – |
| 0.22 µmol/kg | 3.4 nM | CC(=O)Nc1ccc2c(c1)C(CN(C)CCCCc1ccccc1)CC2 (stereo not drawn) [Compound 13b, 6-Acetylamino-1-[N-methyl-N-(4-phenylbutan-1-yl)aminomethyl]indan] | – |
| 0.66 µmol/kg | 1.5 nM | CC(=O)Nc1ccc2c(c1)C(CN(C)CCCCc1c[nH]c3ccccc13)CC2 (stereo not drawn) [Compound 13c, 6-Acetylamino-1-[N-[4-(indol-3-yl)butan-1-yl]-N-methylaminomethyl]indan] | – |
| 0.61 µmol/kg | 1.8 nM | CC(=O)Nc1ccc2c(c1)C(CN(C)CCN1CCNC1=O)CC2 (stereo not drawn) [Compound 13d, 6-Acetylamino-1-[N-[2-(2-imidazolidinon-1-yl)ethyl]-N -methylaminomethyl]indan] | – |

Further lines, the molecule ahead of its results:

| SMILES | ED50 (5-HT1A receptors [1]) | IC50 (5-HT1A receptors [2]) | usefulness in the treatment of anxiety disorders (in words) [3] |
| --- | --- | --- | --- |
| CCCN(CCC)C1CCc2cccc(O)c2C1 (stereo not drawn) [8-OH DPAT, 8-hydroxy-2-dipropylaminotetralin, reference compound] | 0.1 µmol/kg | – | – |
| CCCN(CCC)CC1CCc2ccc(NC=O)cc21 (stereo not drawn) [Compound 1a, 1-(N,N-dipropylaminomethyl)-6-formylaminoindan] | 0.0052 µmol/kg | 4.1 nM | – |
| CN(C)CC1CCc2ccc(NC=O)cc21 (stereo not drawn) [Compound 1b, 1-(N,N-dimethylaminomethyl)-6-formylaminoindan] | 0.41 µmol/kg | 110 nM | – |
| O=CNc1ccc2c(c1)C(CN1CCCCC1)CC2 (stereo not drawn) [Compound 1c, 6-formylamino-1-(1-piperidinomethyl)indan] | 0.33 µmol/kg | 42 nM | – |
| CC1(C)CC(=O)N(CCCCN2CCN(c3ncccn3)CC2)C(=O)C1 [gepirone, 4,4-dimethyl-1-[4-[4-(2-pyrimidyl)-1-piperazinyl]butyl]-2,6-piperidinedione] | – | – | useful in the treatment of anxiety disorders |
| O=C1c2ccccc2S(=O)(=O)N1CCCCN1CCN(c2ncccn2)CC1 [ipsapirone, 2-[4-[4-(2-pyrimidyl)-1-piperazinyl]butyl]-1,2-benzothiazol-3(2H)-one-1,1-dioxide] | – | – | useful in the treatment of anxiety disorders |
